PubChem BioAssay AID1963978 (Molecular Pharmacology Branch, DTP, NCI, 2024)

Test system: 616215-338-R-J1-PDC spheroids with HUVEC/MSC, viability
Assay: Anticancer human tumor 616215-338-R-J1-PDC patient-derived colon adenocarcinoma cell line growth inhibition [PI3K]
Conditions: for viability, T/C: stronger effect = lower value; active means viability on the fitted dose curve at most 10% of control; inactive means the rest
Outline: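 Complex 3D spheroids (cancer cells + endothelial HUVEC + mesenchymal stem cells); drug pairs of targeted agent x inavolisib/alpelisib/duvelisib/copanlisib; half-log series from ~Cmax, max 10 microM if Cmax unknown; endpoint viability.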

[1] = curve of first compound, second compound 0.0316 µM
[2] = curve of first compound, second compound 0.1 µM
[3] = curve of first compound, second compound 0.316 µM
[4] = curve of first compound, second compound 1 µM
[5] = curve of first compound, second compound 3.16 µM
[6] = curve of first compound, second compound 10 µM
[7] = second compound 0.0316 µM, first compound 0.0316 µM
[8] = second compound 0.0316 µM, first compound 0.1 µM
[9] = second compound 0.0316 µM, first compound 0.316 µM
[10] = second compound 0.0316 µM, first compound 1 µM
[11] = second compound 0.0316 µM, first compound 3.16 µM
[12] = second compound 0.0316 µM, first compound 10 µM
[13] = second compound 0.1 µM, first compound 0.0316 µM
[14] = second compound 0.1 µM, first compound 0.1 µM
[15] = second compound 0.1 µM, first compound 0.316 µM
[16] = second compound 0.1 µM, first compound 1 µM
[17] = second compound 0.1 µM, first compound 3.16 µM
[18] = second compound 0.1 µM, first compound 10 µM
[19] = second compound 0.316 µM, first compound 0.0316 µM
[20] = second compound 0.316 µM, first compound 0.1 µM
[21] = second compound 0.316 µM, first compound 0.316 µM
[22] = second compound 0.316 µM, first compound 1 µM
[23] = second compound 0.316 µM, first compound 3.16 µM
[24] = second compound 0.316 µM, first compound 10 µM
[25] = second compound 1 µM, first compound 0.0316 µM
[26] = second compound 1 µM, first compound 0.1 µM
[27] = second compound 1 µM, first compound 0.316 µM
[28] = second compound 1 µM, first compound 1 µM
[29] = second compound 1 µM, first compound 3.16 µM
[30] = second compound 1 µM, first compound 10 µM
[31] = second compound 3.16 µM, first compound 0.0316 µM
[32] = second compound 3.16 µM, first compound 0.1 µM
[33] = second compound 3.16 µM, first compound 0.316 µM
[34] = second compound 3.16 µM, first compound 1 µM
[35] = second compound 3.16 µM, first compound 3.16 µM
[36] = second compound 3.16 µM, first compound 10 µM
[37] = second compound 10 µM, first compound 0.0316 µM
[38] = second compound 10 µM, first compound 0.1 µM
[39] = second compound 10 µM, first compound 0.316 µM
[40] = second compound 10 µM, first compound 1 µM
[41] = second compound 10 µM, first compound 3.16 µM
[42] = second compound 10 µM, first compound 10 µM
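Further: spheroids exposed to agents for seven days before the viability read.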

CCCS(=O)(=O)Nc1ccc(F)c(C(=O)c2c[nH]c3ncc(-c4ccc(Cl)cc4)cc23)c1F + Cc1nc(NC(=O)N2CCCC2C(N)=O)sc1-c1ccnc(C(C)(C)C(F)(F)F)c1
3.71 µM: IC50 [5]
4.51 µM: IC50 [4]
inactive: viability, T/C [7] 108% | viability, T/C [8] 94% | viability, T/C [9] 94.7% | viability, T/C [10] 81.2% | viability, T/C [11] 66.6% | viability, T/C [13] 90.6% | viability, T/C [14] 92.5% | viability, T/C [15] 84.8% | viability, T/C [16] 91.2% | viability, T/C [17] 66.2% | viability, T/C [19] 95.3% | viability, T/C [20] 90.1% | viability, T/C [21] 90.3% | viability, T/C [22] 85% | viability, T/C [23] 65.5% | viability, T/C [25] 95.9% | viability, T/C [26] 92.2% | viability, T/C [27] 93.5% | viability, T/C [28] 86.1% | viability, T/C [29] 69.9% | viability, T/C [31] 96.8% | viability, T/C [32] 86.8% | viability, T/C [33] 91.9% | viability, T/C [34] 82.3% | viability, T/C [35] 57% | viability, T/C [37] 91.7% | viability, T/C [38] 86.4% | viability, T/C [39] 87.4% | viability, T/C [40] 87.8% | viability, T/C [41] 48%
2.99 µM: IC50 [6]
4.25 µM: IC50 [3]
active: viability, T/C [12] 3.55% | viability, T/C [18] 4.03% | viability, T/C [24] 5.89% | viability, T/C [30] 6.45% | viability, T/C [36] 5.97% | viability, T/C [42] 4.82%
4.02 µM: IC50 [1]
4.28 µM: IC50 [2]

CC(C)n1nc(-c2ccc3oc(N)nc3c2)c2c(N)ncnc21 + COc1c(OCCCN2CCOCC2)ccc2c3n(c(=NC(=O)c4cnc(N)nc4)nc12)CCN3
> 0.1 µM: IC50 (curve of first compound, second compound 0.00316 µM) | IC50 (curve of first compound, second compound 0.01 µM)
0.0262 µM: IC50 [2]
inactive: viability, T/C (second compound 0.00316 µM, first compound 0.000316 µM) 104% | viability, T/C (second compound 0.00316 µM, first compound 0.001 µM) 109% | viability, T/C (second compound 0.00316 µM, first compound 0.00316 µM) 97.4% | viability, T/C (second compound 0.00316 µM, first compound 0.01 µM) 105% | viability, T/C (second compound 0.00316 µM, first compound 0.0316 µM) 116% | viability, T/C (second compound 0.00316 µM, first compound 0.1 µM) 65.6% | viability, T/C (second compound 0.01 µM, first compound 0.000316 µM) 104% | viability, T/C (second compound 0.01 µM, first compound 0.001 µM) 100% | viability, T/C (second compound 0.01 µM, first compound 0.00316 µM) 103% | viability, T/C (second compound 0.01 µM, first compound 0.01 µM) 108% | viability, T/C (second compound 0.01 µM, first compound 0.0316 µM) 122% | viability, T/C (second compound 0.01 µM, first compound 0.1 µM) 67.2% | viability, T/C (second compound 0.0316 µM, first compound 0.000316 µM) 106% | viability, T/C (second compound 0.0316 µM, first compound 0.001 µM) 99.2% | viability, T/C (second compound 0.0316 µM, first compound 0.00316 µM) 117% | viability, T/C (second compound 0.0316 µM, first compound 0.01 µM) 117% | viability, T/C [7] 97.3% | viability, T/C [8] 39% | viability, T/C (second compound 0.1 µM, first compound 0.000316 µM) 96.2% | viability, T/C (second compound 0.1 µM, first compound 0.001 µM) 102% | viability, T/C (second compound 0.1 µM, first compound 0.00316 µM) 88.9% | viability, T/C (second compound 0.1 µM, first compound 0.01 µM) 68.7% | viability, T/C [13] 47.7% | viability, T/C [14] 30.1% | viability, T/C (second compound 0.316 µM, first compound 0.000316 µM) 37.9% | viability, T/C (second compound 0.316 µM, first compound 0.001 µM) 42.1% | viability, T/C (second compound 0.316 µM, first compound 0.00316 µM) 34.9% | viability, T/C (second compound 0.316 µM, first compound 0.01 µM) 45.2% | viability, T/C [19] 35.5% | viability, T/C [20] 22.1% | viability, T/C (second compound 1 µM, first compound 0.000316 µM) 24.3% | viability, T/C (second compound 1 µM, first compound 0.001 µM) 29.1% | viability, T/C (second compound 1 µM, first compound 0.00316 µM) 25.1% | viability, T/C (second compound 1 µM, first compound 0.01 µM) 27.8% | viability, T/C [25] 30.1% | viability, T/C [26] 13.2%
< 0.000316 µM: IC50 [3] | IC50 [4]
0.0803 µM: IC50 [1]

CC(C)n1nc(-c2ccc3oc(N)nc3c2)c2c(N)ncnc21
inactive: viability, T/C (compound 0.000316 µM) 95.1% [middle of 4 runs] | viability, T/C (compound 0.001 µM) 95.7% [middle of 4 runs] | viability, T/C (compound 0.00316 µM) 100% [middle of 4 runs] | viability, T/C (compound 0.01 µM) 107% [middle of 4 runs] | viability, T/C (compound 0.0316 µM) 121% [middle of 4 runs] | viability, T/C (compound 0.1 µM) 94.5% [middle of 4 runs]
> 0.1 µM: IC50 (curve of compound)

C#Cc1c(F)ccc2cc(O)cc(-c3ncc4c(N5CC6CCC(C5)N6)nc(OCC56CCCN5CC(F)C6)nc4c3F)c12 (stereo not drawn) + CC(Nc1ncnc2nc[nH]c12)c1cc2cccc(Cl)c2c(=O)n1-c1ccccc1
inactive: viability, T/C [7] 99.5% | viability, T/C [8] 93.7% | viability, T/C [9] 102% | viability, T/C [10] 109% | viability, T/C [11] 109% | viability, T/C [12] 73.3% | viability, T/C [13] 102% | viability, T/C [14] 110% | viability, T/C [15] 98.5% | viability, T/C [16] 99.8% | viability, T/C [17] 102% | viability, T/C [18] 81.3% | viability, T/C [19] 111% | viability, T/C [20] 97.7% | viability, T/C [21] 98.2% | viability, T/C [22] 99.8% | viability, T/C [23] 104% | viability, T/C [24] 68.2% | viability, T/C [25] 100% | viability, T/C [26] 110% | viability, T/C [27] 108% | viability, T/C [28] 104% | viability, T/C [29] 122% | viability, T/C [30] 74.7% | viability, T/C [31] 111% | viability, T/C [32] 97.7% | viability, T/C [33] 103% | viability, T/C [34] 107% | viability, T/C [35] 98.4% | viability, T/C [36] 58.4% | viability, T/C [37] 104% | viability, T/C [38] 108% | viability, T/C [39] 109% | viability, T/C [40] 105% | viability, T/C [41] 95% | viability, T/C [42] 62.5%
> 10 µM: IC50 [1] | IC50 [2] | IC50 [3] | IC50 [4] | IC50 [5] | IC50 [6]
